What was measured:
Format in all cases: cell-based
STING [1] = biological target: T1, STING (Homo sapiens, UniProt Q86WV6, G230A/H232R/R293Q/R71H); assay: STING pathway activity in THP1-Dual/THP-1 cells upon cGAMP or MSA-2 stimulation (luciferase/interferon readout); settings: THP-1 cells; for inhibition at 10 µM: 10 μM compound, cGAMP (100 μM) or MSA-2 (10 μM) stimulation; for Induction of interferon production in the presence of MSA2: 10 μM MSA2, increasing concentrations of compound
T1 construct: host or cells: THP-1 / THP1-Dual / THP1-Lucia ISG cells
Source text: (§1) Methods of measuring STING activity and by extension, the activity of the compounds discussed herein, are known in the art. As an example, the STING pathway activity may be evaluated using reporter cell lines where a reporter gene (i.e., luciferase, GFP) is expressed under direct or indirect control of interferon response elements. For example, in an exemplary embodiment, the STING pathway can be measured using THP1-Dual™ cells (InvivoGen) which express the Lucia gene (a secreted luciferase reporter gene) under the control of an ISG54 minimal promoter in conjunction with five IFN-stimulated response elements. The STING pathway, when activated, stimulates interferon release which, in this model, will increase luciferase expression in a detectable manner. When inhibited, interferon release will be decreased, reducing luciferase expression in a detectable manner. The compounds can optionally be tested in the presence of external stimulation (i.e., using cGAMP, a natural agonist of STING, or MSA-2).
The STING pathway activity was evaluated in THP1-Dual™ cells (Invivogen). […] After incubating at 37° C. for 16 hours, the luciferase activity was measured by QUANTI-Luc™ (Invivogen).

STING [2] = biological target: T1, STING; assay: Interferon production in THP-1 cells under basal conditions (no external stimulation); settings: 32 μM compound; no external stimulation; THP-1 cells
Source text: as §1
(§2) Compounds UT017, UT018, UT019 and UT0122 were tested for their ability to interfere with STING signaling. Interferon production in the presence of increasing concentrations of UT017, UT018, UT019 or UT0122 were measured in THP-1 cell lines under basal conditions. […] Compound UT0122 was further tested in THP1-Lucia™ ISG cells for interferon production at varying concentration, in the presence of an increasing dose of a STING agonist cGAMP.
The STING pathway activity was evaluated in THP1-Dual™ cells (Invivogen). 1.5×10^5 THP1-Dual™ cells were seeded in 96-well plates and treated with the test compound followed by cGAMP (100 uM) or MSA-2 (10 uM, Science 2020, 369, eaba6098) 2 hours later. After incubating at 37° C. for 16 hours, the luciferase activity was measured by QUANTI-Luc™ (Invivogen).

STING [3] = biological target: T1, STING; assay: cGAMP dose-response IFN induction in the presence of increasing compound concentrations; settings: FIGS. 16A-16D
Experimental: Compounds UT009, UT019, UT073 and UT122 were tested for their ability to interfere with cGAMP induced STING signaling. FIGS. 16A-16D show dose response plots of cGAMP induced IFN induction in the presence of increasing concentrations of each compound.
as §2

T1 sequence (Q86WV6 whole entry R71H/G230A/H232R/R293Q): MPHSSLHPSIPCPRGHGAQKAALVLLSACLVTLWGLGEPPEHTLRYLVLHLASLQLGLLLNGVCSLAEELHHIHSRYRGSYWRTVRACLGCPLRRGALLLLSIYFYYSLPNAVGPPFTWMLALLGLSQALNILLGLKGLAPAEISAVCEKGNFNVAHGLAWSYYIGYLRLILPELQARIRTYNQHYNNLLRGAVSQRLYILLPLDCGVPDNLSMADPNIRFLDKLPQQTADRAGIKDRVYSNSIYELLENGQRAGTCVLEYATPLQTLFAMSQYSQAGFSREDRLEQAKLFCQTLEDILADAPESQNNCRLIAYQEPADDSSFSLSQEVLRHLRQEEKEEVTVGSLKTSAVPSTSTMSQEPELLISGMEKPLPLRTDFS

Structure (SMILES) | inhibition at 10 µM (STING [1]) [%] | Activity (inhibition under basal conditions) (STING [2]) | also measured
CC1C(=O)N(Cc2c(F)cccc2C(F)(F)F)c2cc(C(=O)NCc3c(F)cc(F)cc3F)ccc2[C@@H]1C (stereo partly drawn) [UT153, (4R)-1-(2-fluoro-6-(trifluoromethyl)benzyl)-3,4-dimethyl-2-oxo-N-(2,4,6-trifluorobenzyl)-1,2,3,4-tetrahydroquinoline-7-carboxamide] | < 50 |  | 
CC1(C)C(=O)N(Cc2c(F)cc(F)cc2F)c2cc(C(=O)NCc3cc4ccccc4o3)ccc21 [UT114, N-(benzofuran-2-ylmethyl)-3,3-dimethyl-2-oxo-1-(2,4,6-trifluorobenzyl)indoline-6-carboxamide] |  | D* | 
CC1(C)C(=O)N(Cc2c(Oc3cc(F)cc(F)c3)cccc2C(F)(F)F)c2ccc(C#N)cc21 [UT201, 1-(2-(3,5-difluorophenoxy)-6-(trifluoromethyl)benzyl)-3,3-dimethyl-2-oxoindoline-5-carbonitrile] | < 50 |  | 
CC1(C)C(=O)N(Cc2c(F)cc(F)cc2F)c2cc(C(=O)NCc3cc4ccccc4[nH]3)ccc21 [UT141, N-((1H-indol-2-yl)methyl)-3,3-dimethyl-2-oxo-1-(2,4,6-trifluorobenzyl)indoline-6-carboxamide] | > 50 |  | Induction of interferon production in the presence of MSA2 (STING [1]): inhibited in a dose dependent manner
CC1(C)C(=O)N(Cc2c(F)cccc2F)c2cc(-c3ncc(-c4c(F)cc(F)cc4F)o3)ccc21 [UT115, 1-(2,6-difluorobenzyl)-3,3-dimethyl-6-(5-(2,4,6-trifluorophenyl)oxazol-2-yl)indolin-2-one] |  | D* | 
CC1(C)C(=O)N(Cc2c(Oc3cc(F)cc(F)c3)cccc2C(F)(F)F)c2cc(C#N)ccc21 [UT200, 1-(2-(3,5-difluorophenoxy)-6-(trifluoromethyl)benzyl)-3,3-dimethyl-2-oxoindoline-6-carbonitrile] | > 50 |  | 
CC1(C)C(=O)N(Cc2c(Oc3cc(F)cc(F)c3)cccc2C(F)(F)F)c2cc3c(cc21)OCO3 [UT203, 5-(2-(3,5-difluorophenoxy)-6-(trifluoromethyl)benzyl)-7,7-dimethyl-5,7-dihydro-6H-[1,3]dioxolo[4,5-f]indol-6-one] | > 50 |  | 
C[C@H](NC(=O)c1ccc2c(c1)N(Cc1c(F)cccc1Cl)C(=O)C2(C)C)c1c(F)cc(F)cc1F [UT066, (S)-1-(2-chloro-6-fluorobenzyl)-3,3-dimethyl-2-oxo-N-(1-(2,4,6-trifluorophenyl)ethyl) indoline-6-carboxamide] |  | D* | 
CC1(C)C(=O)N(Cc2c(Cl)cccc2Oc2cc(F)cc(F)c2)c2cc(F)ccc21 [UT074, 1-(2-chloro-6-(3,5-difluorophenoxy)benzyl)-6-fluoro-3,3-dimethylindolin-2-one] |  |  | inhibition at 32 µM (STING [2]): < 50%
Cc1nn(C)c(CN2C(=O)C(C)(C)c3ccc(C(=O)NCc4cc5ccccc5[nH]4)cc32)c1C [UT157, N-((1H-indol-2-yl)methyl)-3,3-dimethyl-2-oxo-1-((1,3,4-trimethyl-1H-pyrazol-5-yl)methyl)indoline-6-carboxamide] | < 50 |  | Induction of interferon production in the presence of MSA2 (STING [1]): inhibited in a dose dependent manner
Cc1nn(C)c(CN2C(=O)C(C)(C)c3ccc(C(=O)NCc4cc5ccccc5s4)cc32)c1Br [UT121, N-(benzo[b]thiophen-2-ylmethyl)-1-((4-bromo-1,3-dimethyl-1H-pyrazol-5-yl)methyl)-3,3-dimethyl-2-oxoindoline-6-carboxamide] |  | D* | 
CC1(C)C(=O)N(Cc2c(F)cccc2C(N)=O)c2cc(C(=O)NCc3c(F)cc(F)cc3F)ccc21 [UT126, 1-(2-carbamoyl-6-fluorobenzyl)-3,3-dimethyl-2-oxo-N-(2,4,6-trifluorobenzyl) indoline-6-carboxamide] | < 50 |  | 
CC1(C)C(=O)N(Cc2c(Cl)cccc2Oc2cc(F)cc(F)c2)c2cc(C(F)(F)F)ccc21 [UT073, 1-(2-chloro-6-(3,5-difluorophenoxy)benzyl)-3,3-dimethyl-6-(trifluoromethyl) indolin-2-one] | < 50 |  | cGAMP induced IFN induction in the presence of increasing concentrations of compound (STING [3]): dose-dependent suppression of interferon production
CC1(C)C(=O)N(Cc2c(F)cccc2F)c2cc(-c3cn(-c4ccccc4)nn3)ccc21 [UT118, 1-(2,6-difluorobenzyl)-3,3-dimethyl-6-(1-phenyl-1H-1,2,3-triazol-4-yl)indolin-2-one] |  | D* | 
CC1(C)C(=O)N(Cc2c(F)cccc2F)c2cc(-c3coc(-c4cccc(F)c4)n3)ccc21 [UT117, 1-(2,6-difluorobenzyl)-6-(2-(3-fluorophenyl)oxazol-4-yl)-3,3-dimethylindolin-2-one] |  | D* | 
CC1(C)C(=O)N(Cc2c(F)cc(F)cc2F)c2cc(C(=O)NCc3cc4cc(F)c(F)cc4o3)ccc21 [UT120, N-((5,6-difluorobenzofuran-2-yl)methyl)-3,3-dimethyl-2-oxo-1-(2,4,6-trifluorobenzyl) indoline-6-carboxamide] |  | D* | 
CC1(C)C(=O)N(Cc2c(Cl)cccc2OCc2cc(F)cc(F)c2)c2cc(C(F)(F)F)ccc21 [UT071a, 1-(2-chloro-6-((3,5-difluorobenzyl)oxy)benzyl)-3,3-dimethyl-6-(trifluoromethyl)indolin-2-one] |  |  | inhibition at 32 µM (STING [2]): < 50%
CC1(C)C(=O)N(Cc2c(Oc3cc(F)cc(F)c3)cccc2C(F)(F)F)c2cc(C(F)(F)F)ccc21 [UT149, 1-(2-(3,5-difluorophenoxy)-6-(trifluoromethyl)benzyl)-3,3-dimethyl-6-(trifluoromethyl)indolin-2-one] | < 50 |  | 
CC1C(=O)N(Cc2c(F)cccc2C(F)(F)F)c2cc(C(=O)NCc3cc4ccccc4[nH]3)ccc2[C@@H]1C (stereo partly drawn) [UT158, (4R)-N-((1H-indol-2-yl)methyl)-1-(2-fluoro-6-(trifluoromethyl)benzyl)-3,4-dimethyl-2-oxo-1,2,3,4-tetrahydroquinoline-7-carboxamide] | < 50 |  | 
Cc1nn(C)c(CN2C(=O)C(C)[C@@H](C)c3ccc(C(=O)NCc4cc5ccccc5[nH]4)cc32)c1Br (stereo partly drawn) [UT151, (4R)-N-((1H-indol-2-yl)methyl)-1-((4-bromo-1,3-dimethyl-1H-pyrazol-5-yl)methyl)-3,4-dimethyl-2-oxo-1,2,3,4-tetrahydroquinoline-7-carboxamide] | < 50 |  | 
CC1(C)C(=O)N(Cc2c(Cl)cccc2OCc2cc(F)cc(F)c2)c2cc(F)ccc21 [UT072, 1-(2-chloro-6-((3,5-difluorobenzyl)oxy)benzyl)-6-fluoro-3,3-dimethylindolin-2-one] |  |  | inhibition at 32 µM (STING [2]): < 50%
C[C@@H](NC(=O)c1ccc2c(c1)N(Cc1c(F)cccc1Cl)C(=O)C2(C)C)c1c(F)cc(F)cc1F [UT065, (R)-1-(2-chloro-6-fluorobenzyl)-3,3-dimethyl-2-oxo-N-(1-(2,4,6-trifluorophenyl)ethyl) indoline-6-carboxamide] |  | D* | 
Cc1nn(C)c(CN2C(=O)C(C)[C@@H](C)c3ccc(C(=O)NCc4cc5ccccc5[nH]4)cc32)c1C (stereo partly drawn) [UT160, (4R)-N-((1H-indol-2-yl)methyl)-3,4-dimethyl-2-oxo-1-((1,3,4-trimethyl-1H-pyrazol-5-yl)methyl)-1,2,3,4-tetrahydroquinoline-7-carboxamide] | < 50 |  | 
CC1(C)C(=O)N(Cc2c(Oc3cc(F)cc(F)c3)cccc2C(F)(F)F)c2ccc(C(F)(F)F)cc21 [UT202, 1-(2-(3,5-difluorophenoxy)-6-(trifluoromethyl)benzyl)-3,3-dimethyl-5-(trifluoromethyl)indolin-2-one] | < 50 |  | 
CC1(C)C(=O)N(Cc2c(F)cccc2C(F)(F)F)c2cc(C(=O)NCc3cc4ccccc4[nH]3)ccc21 [UT142, N-((1H-indol-2-yl)methyl)-1-(2-fluoro-6-(trifluoromethyl)benzyl)-3,3-dimethyl-2-oxoindoline-6-carboxamide] | > 50 |  | Induction of interferon production in the presence of MSA2 (STING [1]): inhibited in a dose dependent manner
CC1C(=O)N(Cc2c(F)cc(F)cc2F)c2cc(C(=O)NCc3cc4ccccc4[nH]3)ccc2[C@@H]1C (stereo partly drawn) [UT156, (4R)-N-((1H-indol-2-yl)methyl)-3,4-dimethyl-2-oxo-1-(2,4,6-trifluorobenzyl)-1,2,3,4-tetrahydroquinoline-7-carboxamide] | > 50 |  | 

From patent US20250170120A1, “ALLOSTERIC STING MODULATORS AND METHODS OF USE” (THE BOARD OF REGENTS OF THE UNIVERSITY OF TEXAS SYSTEM, priority 2022, published 2025)
